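Cultured in 96-well plates, cells were exposed to test compound for 48 hours across five concentrations. Abbreviation: GI50, concentration required for 50% inhibition of growth.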 The source made the active and inactive calls. Cut-off read from the data, not from the text of the source: active = GI50 up to about 1.1 µM and inactive = higher.
Assays:
Assay in all cases: DTP human tumour cell line panel, 48 h
[1] = tested on: CAKI-1
[2] = tested on: CCRF-CEM
[3] = tested on: M14
[4] = tested on: NCI-H226
[5] = tested on: LOX IMVI
[6] = tested on: OVCAR-8
[7] = tested on: EKVX
[8] = tested on: U-251
[9] = tested on: SW-620
[10] = tested on: NCI-H23
[11] = tested on: MDA-N
[12] = tested on: SNB-19
[13] = tested on: OVCAR-5
[14] = tested on: DU-145
[15] = tested on: SK-MEL-28
[16] = tested on: PC-3
[17] = tested on: SK-MEL-5
[18] = tested on: ACHN
[19] = tested on: NCI/ADR-RES
[20] = tested on: RPMI-8226
[21] = tested on: SF-539
[22] = tested on: IGROV-1
[23] = tested on: A498
[24] = tested on: MDA-MB-435
[25] = tested on: MDA-MB-231
[26] = tested on: TK-10
[27] = tested on: UACC-257
[28] = tested on: HCC 2998
[29] = tested on: 786-0
[30] = tested on: HT-29
[31] = tested on: SN12C
[32] = tested on: HL-60
[33] = tested on: SNB-75
[34] = tested on: SK-OV-3
[35] = tested on: BT-549
[36] = tested on: K562
[37] = tested on: MCF7
[38] = tested on: MOLT-4
[39] = tested on: A549
[40] = tested on: T47D
[41] = tested on: NCI-H460
[42] = tested on: OVCAR-3
[43] = tested on: HCT-116
[44] = tested on: SF-268
[45] = tested on: Hs-578T
[46] = tested on: SK-MEL-2
[47] = tested on: RXF 393
[48] = tested on: COLO 205
[49] = tested on: Malme-3M
[50] = tested on: KM12
[51] = tested on: OVCAR-4
[52] = tested on: HOP-62
[53] = tested on: UACC-62
[54] = tested on: NCI-H522
[55] = tested on: SF-295
[56] = tested on: HCT-15
[57] = tested on: SR
[58] = tested on: HOP-92
[59] = tested on: UO-31

Cc1cc(S(=O)(=O)Nc2nncn2-c2ccc(Cl)cc2)c(S)cc1Cl
GI50 [1]: > 10 µM (inactive) | GI50 [2]: > 10 µM (inactive) | GI50 [3]: > 10 µM (inactive) | GI50 [4]: > 10 µM (inactive) | GI50 [5]: > 10 µM (inactive) | GI50 [6]: > 10 µM (inactive) | GI50 [7]: > 10 µM (inactive) | GI50 [8]: > 10 µM (inactive) | GI50 [9]: > 10 µM (inactive) | GI50 [10]: > 10 µM (inactive) | GI50 [11]: > 10 µM (inactive) | GI50 [12]: > 10 µM (inactive) | GI50 [13]: > 10 µM (inactive) | GI50 [14]: > 10 µM (inactive) | GI50 [15]: > 10 µM (inactive) | GI50 [16]: > 10 µM (inactive) | GI50 [17]: > 10 µM (inactive) | GI50 [18]: > 10 µM (inactive) | GI50 [19]: > 10 µM (inactive) | GI50 [20]: > 10 µM (inactive) | GI50 [21]: > 10 µM (inactive) | GI50 [22]: > 10 µM (inactive) | GI50 [23]: > 10 µM (inactive) | GI50 [24]: > 10 µM (inactive) | GI50 [25]: > 10 µM (inactive) | GI50 [26]: > 10 µM (inactive) | GI50 [27]: > 10 µM (inactive) | GI50 [28]: > 10 µM (inactive) | GI50 [29]: > 10 µM (inactive) | GI50 [30]: > 10 µM (inactive) | GI50 [31]: > 10 µM (inactive) | GI50 [32]: > 10 µM (inactive) | GI50 [33]: > 10 µM (inactive) | GI50 [34]: > 10 µM (inactive) | GI50 [35]: > 10 µM (inactive) | GI50 [36]: > 10 µM (inactive) | GI50 [37]: > 10 µM (inactive) | GI50 [38]: > 10 µM (inactive) | GI50 [39]: > 10 µM (inactive) | GI50 [40]: > 10 µM (inactive) | GI50 [41]: > 10 µM (inactive) | GI50 [42]: > 10 µM (inactive) | GI50 [43]: > 10 µM (inactive) | GI50 [44]: > 10 µM (inactive) | GI50 [45]: > 10 µM (inactive) | GI50 [46]: > 10 µM (inactive) | GI50 [47]: > 10 µM (inactive) | GI50 [48]: > 10 µM (inactive) | GI50 [49]: > 10 µM (inactive) | GI50 [50]: > 10 µM (inactive) | GI50 [51]: > 10 µM (inactive) | GI50 [52]: > 10 µM (inactive) | GI50 [53]: > 10 µM (inactive) | GI50 [54]: > 10 µM (inactive) | GI50 [55]: > 10 µM (inactive) | GI50 [56]: > 10 µM

N#CC(O)CCOCc1ccccc1 (stereo not given)
GI50 [1]: 17.7 µM (inactive) | GI50 [2]: 35.4 µM (inactive) | GI50 [3]: > 100 µM (inactive) | GI50 [4]: > 100 µM (inactive) | GI50 [5]: 46.9 µM (inactive) | GI50 [6]: > 100 µM (inactive) | GI50 [7]: > 100 µM (inactive) | GI50 [8]: > 100 µM (inactive) | GI50 [9]: 45.4 µM (inactive) | GI50 [10]: > 100 µM (inactive) | GI50 [11]: 86.7 µM (inactive) | GI50 [12]: > 100 µM (inactive) | GI50 [13]: > 100 µM (inactive) | GI50 [14]: > 100 µM (inactive) | GI50 [15]: > 100 µM (inactive) | GI50 [16]: > 100 µM (inactive) | GI50 [17]: > 100 µM (inactive) | GI50 [18]: 39.4 µM (inactive) | GI50 [19]: > 100 µM (inactive) | GI50 [20]: 41.7 µM (inactive) | GI50 [21]: 85.3 µM (inactive) | GI50 [22]: > 100 µM (inactive) | GI50 [23]: > 100 µM (inactive) | GI50 [24]: > 100 µM (inactive) | GI50 [25]: > 100 µM (inactive) | GI50 [26]: > 100 µM (inactive) | GI50 [27]: > 100 µM (inactive) | GI50 [57]: > 100 µM (inactive) | GI50 [58]: 65.2 µM (inactive) | GI50 [29]: 78.7 µM (inactive) | GI50 [30]: 38.6 µM (inactive) | GI50 [31]: > 100 µM (inactive) | GI50 [32]: 34.4 µM (inactive) | GI50 [34]: > 100 µM (inactive) | GI50 [35]: > 100 µM (inactive) | GI50 [36]: 80.7 µM (inactive) | GI50 [37]: 41.6 µM (inactive) | GI50 [38]: 3.39 µM (inactive) | GI50 [39]: > 100 µM (inactive) | GI50 [40]: > 100 µM (inactive) | GI50 [41]: > 100 µM (inactive) | GI50 [42]: > 100 µM (inactive) | GI50 [43]: 66.5 µM (inactive) | GI50 [44]: 5.56 µM (inactive) | GI50 [46]: > 100 µM (inactive) | GI50 [48]: > 100 µM (inactive) | GI50 [49]: > 10 µM (inactive) | GI50 [50]: > 100 µM (inactive) | GI50 [51]: > 100 µM (inactive) | GI50 [52]: > 100 µM (inactive) | GI50 [53]: > 100 µM (inactive) | GI50 [54]: 20.5 µM (inactive) | GI50 [59]: 78.7 µM (inactive) | GI50 [55]: > 100 µM (inactive) | GI50 [56]: 52.4 µM

C[C@@H](CO)C1=C(O)C(=O)c2c(ccc3c2CCCC3(C)C)C1=O
GI50 [1]: 44.9 µM (inactive) | GI50 [2]: 3.33 µM (inactive) | GI50 [3]: 17.7 µM (inactive) | GI50 [4]: 28.2 µM (inactive) | GI50 [5]: 59.4 µM (inactive) | GI50 [6]: 35.2 µM (inactive) | GI50 [7]: 33.5 µM (inactive) | GI50 [8]: 14.1 µM (inactive) | GI50 [9]: 28.3 µM (inactive) | GI50 [10]: 22.1 µM (inactive) | GI50 [11]: 45.1 µM (inactive) | GI50 [12]: 25.7 µM (inactive) | GI50 [13]: 36.6 µM (inactive) | GI50 [14]: 47 µM (inactive) | GI50 [15]: 30.8 µM (inactive) | GI50 [16]: 31.8 µM (inactive) | GI50 [17]: 30.5 µM (inactive) | GI50 [18]: 18.5 µM (inactive) | GI50 [19]: 38.8 µM (inactive) | GI50 [20]: 23 µM (inactive) | GI50 [22]: 37.2 µM (inactive) | GI50 [23]: 33 µM (inactive) | GI50 [24]: 26.8 µM (inactive) | GI50 [25]: 61.4 µM (inactive) | GI50 [26]: 45.4 µM (inactive) | GI50 [27]: 32.1 µM (inactive) | GI50 [58]: 21.2 µM (inactive) | GI50 [29]: 55.3 µM (inactive) | GI50 [30]: 35.5 µM (inactive) | GI50 [31]: 54.8 µM (inactive) | GI50 [32]: < 0.01 µM (active) | GI50 [33]: 40 µM (inactive) | GI50 [34]: 61.9 µM (inactive) | GI50 [35]: 37.1 µM (inactive) | GI50 [36]: 30.3 µM (inactive) | GI50 [38]: 42.1 µM (inactive) | GI50 [39]: 32.1 µM (inactive) | GI50 [40]: 50.6 µM (inactive) | GI50 [42]: 28.2 µM (inactive) | GI50 [43]: 45.5 µM (inactive) | GI50 [44]: 32.2 µM (inactive) | GI50 [45]: 51.2 µM (inactive) | GI50 [46]: 23.2 µM (inactive) | GI50 [47]: 43.8 µM (inactive) | GI50 [48]: 38.3 µM (inactive) | GI50 [49]: 15.9 µM (inactive) | GI50 [50]: 37.2 µM (inactive) | GI50 [51]: 46.7 µM (inactive) | GI50 [52]: 29.2 µM (inactive) | GI50 [53]: 23.2 µM (inactive) | GI50 [54]: 15.5 µM (inactive) | GI50 [59]: 33.3 µM (inactive) | GI50 [55]: 30.4 µM (inactive) | GI50 [56]: 29 µM
